Patent US20200078468A1, “NEUROTENSIN RECEPTOR BINDING CONJUGATES AND FORMULATIONS THEREOF” (priority 2016, published 2020)
Read-outs that look alike come from different tables or passages of the source. Square brackets hold non-standard residues; d marks the D form. Peptide text beside a SMILES is read from it. * marks the point of attachment. X2 = COc1cc2cc(c1Cl)N(C)C(=O)C[C@H](OC(=O)[C@H](C)N(C)C(=O)CCS*)[C@]1(C)O[C@H]1[C@H](C)[C@@H]1C[C@@](O)(NC(=O)O1)[C@H](OC)/C=C/C=C(\C)C2; Pen = CC(C)(S)[C@H](N)C(=O)O; Tle = CC(C)(C)[C@H](N)C(=O)O

Legend:
[1] = test system: SW48 (human colon cancer cells); experiment: inhibition of SW48 cell proliferation (CellTiter Glo); type: cell-based; settings: 72 hrs, read-out: SW-48 proliferation IC50
Method in brief: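 Cells plated at 5,000/well and grown 24 hrs were exposed to conjugates for 72 hrs at 37° C, 5% CO2, in a ten-point three-fold series starting at 10 μM; vehicle was 0.01% DMSO. Proliferation was read by CellTiter Glo. % inhibition was taken relative to vehicle, with IC50 from four-parameter nonlinear regression.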

[2] = test system: HT-29 cells (human colon cancer cells); experiment: inhibition of HT29 cell proliferation (Cell Titer Glo 2.0); type: cell-based; settings: NTSR1 scrambled compound; 72 h
Method: Conjugates were assessed in an in vitro assay evaluating inhibition of cell proliferation. HT-29 cells (human colon cancer cells) were seeded in white walled 96-well plates at 10,000 cells per well in 100 μl McCoy's 5a (Invitrogen) media supplemented with 10% Fetal Bovine Serum (Invitrogen). After allowing cells to settle overnight, 5 μl of 20× test article was added to each well in replicate and incubated for 72 h. 72 hours after addition of compound, plates were removed from incubator and allowed to cool to room temperature. 50 μl of Cell Titer Glo 2.0 (Promega) was added to each well, incubated for 15 minutes, and plates were read on Glomax luminometer (Promega) using the Cell Titer Glo protocol. Raw luminometer readings for each plate were transformed by dividing the experimental well into the mean of untreated control wells. This is reported as ratio of untreated, and is plotted with Prism 6 software (Graph Pad) and fitted with a 4-parameter, variable slope curve.
Conjugates are assessed for receptor-dependent cytotoxicity by the difference between an NTSR1-targeting conjugate, and the corresponding conjugate with the same linker moiety and active agent where the NTSR1-targeting domain has been scrambled.

human NTSR1 = biological target: T1, human NTSR1 (Homo sapiens, UniProt P30989); experiment: radioligand-receptor binding assay, [125I] labeled neurotensin (Eurofins Panlabs)
T1 construct: host or cells: HEK-293 cells (membrane preparations)
Method in brief: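 Membranes from HEK-293 cells expressing human NTSR1 incubated 45 min with 0.02 nM [125I]neurotensin and conjugate in 6-point 3-fold dilutions from 100 or 10 nM; bound radioactivity counted after filtration. IC50 by nonlinear regression, converted to Ki via Cheng–Prusoff using historical ligand Kd.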

[3] = [125I] neurotensin 0.02 nM, membranes from NTSR1 expressing HEK-293 cells, 45 minute incubation, Cheng and Prusoff, read-out: NTSR1 binding Ki

T1 sequence (P30989 whole entry): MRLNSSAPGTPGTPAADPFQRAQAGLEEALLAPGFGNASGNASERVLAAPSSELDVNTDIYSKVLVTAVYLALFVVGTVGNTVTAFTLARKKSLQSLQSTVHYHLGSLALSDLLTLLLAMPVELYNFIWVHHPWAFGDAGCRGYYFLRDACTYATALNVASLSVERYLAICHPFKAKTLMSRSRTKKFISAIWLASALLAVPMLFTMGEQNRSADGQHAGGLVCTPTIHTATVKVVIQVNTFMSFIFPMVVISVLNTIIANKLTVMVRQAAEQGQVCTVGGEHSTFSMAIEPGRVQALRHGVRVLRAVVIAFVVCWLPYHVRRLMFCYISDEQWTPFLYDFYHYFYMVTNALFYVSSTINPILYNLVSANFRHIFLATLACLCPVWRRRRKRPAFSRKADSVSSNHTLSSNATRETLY

| SMILES | IC50 ([1]; NTSR1 scrambled compound) | IC50 [2] | Ki (human NTSR1) | Ki (human NTSR1; [3]) | IC50 ([1]; NTSR1 targeted compound) |
| --- | --- | --- | --- | --- | --- |
| COc1cc2cc(c1Cl)N(C)C(=O)C[C@H](OC(=O)[C@H](C)N(C)C(=O)CCSC1CC(=O)N(CCCCCC(=O)NCCCC[C@H](NC(C)=O)C(=O)N3CCC[C@H]3C(=O)N[C@@H](CC(C)C)C(=O)N3CCC[C@H]3C(=O)N(C)[C@@H](CCCNC(=N)N)C(=O)N[C@H](C(=O)N[C@@H](CCCNC(=N)N)C(=O)N[C@@H](Cc3ccc(O)cc3)C(=O)O)C(C)(C)C)C1=O)[C@]1(C)O[C@H]1[C@H](C)[C@@H]1C[C@@](O)(NC(=O)O1)[C@H](OC)/C=C/C=C(\C)C2 (stereo partly shown) [Compound 80] | 81 nM | 116 nM |  |  |  |
| CC[C@H](C)[C@@H]([C@@H](CC(=O)N1CCC[C@H]1[C@H](OC)[C@@H](C)C(=O)N[C@H](C)[C@@H](O)c1ccccc1)OC)N(C)C(=O)[C@@H](NC(=O)[C@H](C(C)C)N(C)C(=O)OCc1ccc(NC(=O)[C@H](CCCNC(N)=O)NC(=O)[C@@H](NC(=O)CCCCCN2C(=O)CC(SC(C)(C)[C@H](NC(C)=O)C(=O)N3CCC[C@H]3C(=O)N[C@@H](CC(C)C)C(=O)N3CCC[C@H]3C(=O)N[C@@H](CCCNC(=N)N)C(=O)N[C@H](C(=O)N[C@@H](CCCNC(=N)N)C(=O)N[C@@H](Cc3ccc(O)cc3)C(=O)O)C(C)(C)C)C2=O)C(C)C)cc1)C(C)C (stereo partly shown) [Compound 90] | 60 nM | 97 nM |  |  |  |
| COc1cc2cc(c1Cl)N(C)C(=O)C[C@H](OC(=O)[C@H](C)N(C)C(=O)CCSSCCC(=O)NCCCC[C@H](NC(C)=O)C(=O)N1CCC[C@H]1C(=O)N[C@@H](CC(C)C)C(=O)N1CCC[C@H]1C(=O)N(C)[C@@H](CCCNC(=N)N)C(=O)N[C@H](C(=O)N[C@@H](CCCNC(=N)N)C(=O)N[C@@H](Cc1ccc(O)cc1)C(=O)O)C(C)(C)C)[C@]1(C)O[C@H]1[C@H](C)[C@@H]1C[C@@](O)(NC(=O)O1)[C@H](OC)/C=C/C=C(\C)C2 [Compound 78] | 3 nM | 13.3 nM |  |  |  |
| COc1cc2cc(c1Cl)N(C)C(=O)C[C@H](OC(=O)[C@H](C)N(C)C(=O)CCSC1CC(=O)N(CCCNC(=O)CNC(=O)[C@H](CC(C)C)NC(=O)[C@H](Cc3ccccc3)NC(=O)CNC(=O)CCCCCN3C(=O)CC(SC(C)(C)[C@H](NC(C)=O)C(=O)N4CCC[C@H]4C(=O)N[C@@H](CC(C)C)C(=O)N4CCC[C@H]4C(=O)N[C@@H](CCCNC(=N)N)C(=O)N[C@H](C(=O)N[C@@H](CCCNC(=N)N)C(=O)N[C@@H](Cc4ccc(O)cc4)C(=O)O)C(C)(C)C)C3=O)C1=O)[C@]1(C)O[C@H]1[C@H](C)[C@@H]1C[C@@](O)(NC(=O)O1)[C@H](OC)/C=C/C=C(\C)C2 (stereo partly shown) [Compound 81] | 70 nM |  | > 100 nM |  |  |
| COc1cc2cc(c1Cl)N(C)C(=O)C[C@H](OC(=O)[C@H](C)N(C)C(=O)CCSC1CC(=O)N(CCCNC(=O)CNC(=O)[C@H](CC(C)C)NC(=O)[C@H](Cc3ccccc3)NC(=O)CNC(=O)CCCCCN3C(=O)CC(SCCC(=O)NCCCC[C@H](NC(C)=O)C(=O)N4CCC[C@H]4C(=O)N[C@@H](CCCCN)C(=O)N[C@@H](CCCNC(=N)N)C(=O)N4CCC[C@H]4C(=O)N[C@@H](Cc4ccc(O)cc4)C(=O)N[C@H](C(=O)N[C@@H](CC(C)C)C(=O)O)C(C)(C)C)C3=O)C1=O)[C@]1(C)O[C@H]1[C@H](C)[C@@H]1C[C@@](O)(NC(=O)O1)[C@H](OC)/C=C/C=C(\C)C2 (stereo partly shown) [Compound 33] |  |  |  | 2.32 nM | 105 nM |
| CC[C@H](C)[C@@H]([C@@H](CC(=O)N1CCC[C@H]1[C@H](OC)[C@@H](C)C(=O)N[C@H](C)[C@@H](O)c1ccccc1)OC)N(C)C(=O)[C@@H](NC(=O)[C@H](C(C)C)N(C)C(=O)OCCSSC(C)(C)[C@H](NC(C)=O)C(=O)N1CCC[C@H]1C(=O)N[C@@H](CC(C)C)C(=O)N1CCC[C@H]1C(=O)N[C@@H](CCCNC(=N)N)C(=O)N[C@H](C(=O)N[C@@H](CCCNC(=N)N)C(=O)N[C@@H](Cc1ccc(O)cc1)C(=O)O)C(C)(C)C)C(C)C [Compound 92] | 18 nM | 2.2 nM |  |  |  |
| COc1cc2cc(c1Cl)N(C)C(=O)C[C@H](OC(=O)[C@H](C)N(C)C(=O)CCSSC(C)(C)[C@H](NC(C)=O)C(=O)N1CCC[C@H]1C(=O)N[C@@H](CCCNC(=N)N)C(=O)N[C@@H](CCCNC(=N)N)C(=O)N1CCC[C@H]1C(=O)N[C@@H](Cc1ccc(O)cc1)C(=O)N[C@H](C(=O)N[C@@H](CC(C)C)C(=O)O)C(C)(C)C)[C@]1(C)O[C@H]1[C@H](C)[C@@H]1C[C@@](O)(NC(=O)O1)[C@H](OC)/C=C/C=C(\C)C2 [Compound 12] (Ac-[Pen](X2)PRRPY[Tle]L-OH) |  |  |  | 1.03 nM | 15 nM |
| COc1cc2cc(c1Cl)N(C)C(=O)C[C@H](OC(=O)[C@H](C)N(C)C(=O)CCSC1CC(=O)N(CCCNC(=O)CNC(=O)[C@H](CC(C)C)NC(=O)[C@H](Cc3ccccc3)NC(=O)CNC(=O)CCCCCN3C(=O)CC(SC(C)(C)[C@H](NC(C)=O)C(=O)N4CCC[C@H]4C(=O)N[C@@H](CCCNC(=N)N)C(=O)N(C)[C@@H](CCCNC(=N)N)C(=O)N4CCC[C@H]4C(=O)N[C@@H](Cc4c[nH]c5ccccc45)C(=O)N[C@H](C(=O)N[C@@H](CC(C)C)C(=O)O)C(C)(C)C)C3=O)C1=O)[C@]1(C)O[C@H]1[C@H](C)[C@@H]1C[C@@](O)(NC(=O)O1)[C@H](OC)/C=C/C=C(\C)C2 (stereo partly shown) [Compound 19] |  |  |  | > 100 nM | 6.3 nM |
| COc1cc2cc(c1Cl)N(C)C(=O)C[C@H](OC(=O)[C@H](C)N(C)C(=O)CCSC1CC(=O)N(CCCNC(=O)CNC(=O)[C@H](CC(C)C)NC(=O)[C@H](Cc3ccccc3)NC(=O)CNC(=O)CCC(=O)NCCCC[C@H](NC(=O)c3ccc(C(C)=O)cc3)C(=O)N3CCC[C@H]3C(=O)N(C)[C@@H](CCCNC(=N)N)C(=O)N[C@@H](CCCNC(=N)N)C(=O)N3CCC[C@H]3C(=O)N[C@@H](Cc3ccc(O)cc3)C(=O)N[C@H](C(=O)N[C@@H](CC(C)C)C(=O)O)C(C)(C)C)C1=O)[C@]1(C)O[C@H]1[C@H](C)[C@@H]1C[C@@](O)(NC(=O)O1)[C@H](OC)/C=C/C=C(\C)C2 (stereo partly shown) [Compound 28] |  |  |  | 0.67 nM | 5.9 nM |
| COc1cc2cc(c1Cl)N(C)C(=O)C[C@H](OC(=O)[C@H](C)N(C)C(=O)CCSC1CC(=O)N(CCCNC(=O)CNC(=O)[C@H](CC(C)C)NC(=O)[C@H](Cc3ccccc3)NC(=O)CNC(=O)CCCCCN3C(=O)CC(SCCC(=O)NCCCC[C@H](NC(C)=O)C(=O)N4CCC[C@H]4C(=O)N[C@@H](CCCNC(=N)N)C(=O)N[C@@H](CCN)C(=O)N4CCC[C@H]4C(=O)N[C@@H](Cc4ccc(O)cc4)C(=O)N[C@H](C(=O)N[C@@H](CC(C)C)C(=O)O)C(C)(C)C)C3=O)C1=O)[C@]1(C)O[C@H]1[C@H](C)[C@@H]1C[C@@](O)(NC(=O)O1)[C@H](OC)/C=C/C=C(\C)C2 (stereo partly shown) [Compound 31] |  |  |  | 2.39 nM | 75.6 nM |
| COc1cc2cc(c1Cl)N(C)C(=O)C[C@H](OC(=O)[C@H](C)N(C)C(=O)CCSSC(C)(C)[C@H](NC(C)=O)C(=O)N1CCC[C@H]1C(=O)N[C@@H](CC(C)C)C(=O)N1CCC[C@H]1C(=O)N[C@@H](CCCNC(=N)N)C(=O)N[C@H](C(=O)N[C@@H](CCCNC(=N)N)C(=O)N[C@@H](Cc1ccc(O)cc1)C(=O)O)C(C)(C)C)[C@]1(C)O[C@H]1[C@H](C)[C@@H]1C[C@@](O)(NC(=O)O1)[C@H](OC)/C=C/C=C(\C)C2 [Compound 77] | 16.5 nM |  |  | > 100 nM |  |
